Experimental data from patent US20100075907A1, “NEUROMEDIN U RECEPTOR AGONISTS AND USES THEREOF” (priority 2006, published 2010).
Non-standard residues stand in square brackets, D forms with d. Residues, ends and D or L forms follow the SMILES beside them. hArg = N=C(N)NCCCC[C@H](N)C(=O)O; dNle = CCCC[C@@H](N)C(=O)O

Biological target: T1, hNMUR1 (Homo sapiens, UniProt Q9HB89)
T1 sequence (Q9HB89 1-426): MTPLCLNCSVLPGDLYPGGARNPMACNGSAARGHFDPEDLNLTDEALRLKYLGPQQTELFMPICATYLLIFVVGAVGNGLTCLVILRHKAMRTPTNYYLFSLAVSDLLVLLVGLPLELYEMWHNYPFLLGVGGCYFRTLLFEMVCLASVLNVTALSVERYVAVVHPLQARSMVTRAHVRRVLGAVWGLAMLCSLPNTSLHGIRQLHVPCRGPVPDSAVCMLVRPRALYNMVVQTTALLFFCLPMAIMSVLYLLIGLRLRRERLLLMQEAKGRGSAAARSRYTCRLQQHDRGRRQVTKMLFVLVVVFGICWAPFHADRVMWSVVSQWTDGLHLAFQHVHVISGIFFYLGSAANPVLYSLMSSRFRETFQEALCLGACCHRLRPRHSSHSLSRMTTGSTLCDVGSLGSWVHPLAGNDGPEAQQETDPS
Experiment: In vitro functional assay, HEK-hR1 cells
Type: cell-based
Parameters: expressed in transfected cells; host or cells: FLP-In CHO or HEK-293 FLP-In cells (pcDNA5); HEK-293/aeq17 lines (pIRES-puro) were also made
Description: Human, mouse or rat cDNAs encoding NMUR1 or NMUR2 (as described in Howard et al. Nature 406: 70-74 (2000) were subcloned in pcDNA5 (Invitrogen) and transfected into FLP-In CHO cells and HEK-293 FLP-In cells purchased from Invitrogen (Carlsbad, Calif.) using lipofectamine (Invitrogen). The Flp-In system allows integration and expression of a particular gene of interest at a specific genomic location utilizing the Flp recombinase from yeast. The transfected cells were selected by growth in medium containing 200 μg/mL hygromycin (Invitrogen). Populations were frozen at early passage numbers, and these stocks were used for further studies. Stable clones that expressed the mRNAs were identified functionally by FLIPR as well as by RT-PCR. […] Two different rodent NMUR1 cell lines were thus generated: one with the codon as predicted from the genomic databases and another cell line with an engineered methionine (ATG) as the start codon. Additionally, stable cell lines expressing the human receptors were generated in HEK-293/aeq17 cells which stably express the aequorin gene under the CMV promoter. The human NMUR2 cDNA was cloned into pcDNA3.1 and human NMUR1 was subcloned into pIRES-puro (Clontech, Mountain View, Calif.), after transfection cells were selected in media containing G418 and either hygromycin (NMUR2) or puromycin (NMUR1).
The NMU receptors signal primarily through Gαq/11 proteins; therefore calcium mobilization assays can be utilized for functional activity.
Stable cell lines expressing human and or rodent NMUR1 or human NMUR2 receptors were plated at a density of 12,000 cells per well overnight on poly-lysine coated 384-well black-walled plates. The following day, the media was removed from the plates and the cells were subsequently loaded with Fluo-3 (Molecular Probes), a calcium sensitive dye, diluted in FLIPR buffer (1× Hank's buffered saline containing 20 mM HEPES, 0.1% BSA, 2.5 mM probenecid (Sigma) and 1.6 mM TR40). All reagents are from Invitrogen unless otherwise noted. Peptide stocks were resuspended in DMSO at a stock concentration of 2 mM and diluted in FLIPR buffer on the day of the experiment to a 4 μM working stock solution.
After a 90 minute incubation at room-temperature, cell plates were loaded onto a FLIPR (Molecular Devices) to monitor cellular fluorescence (excitation=488 nm; emission=540 nm) before and after compound/peptide addition. Eight to twelve point dose responses were tested on NMUR-expressing cell lines using FLIPR with 1 μM peptide as the highest dose. The response after peptide addition was taken as the maximum fluorescence units minus the fluorescence immediately prior to stimulation for each well. EC50 values were calculated using GraphPad Prism (San Diego, Calif.) software.
In addition to FLIPR, NMU receptor function can also be evaluated using an aequorin assay. Stable cell lines expressing the aequorin jelly fish gene can be used to report the activation of GPCRs by monitoring intracellular calcium mobilization. The objective is to identify compounds which specifically stimulate aequorin bioluminescence. Calcium-dependent luminescence is generated by the treatment of cells with the coelenterate luciferin, coelenterazine. Briefly, confluent monolayers of HEK-293/aeq 17 cells expressing hNMUR1 or hNMUR2 are “charged” with coelenterazine (Molecular Probes, Carlsbad, Calif.). Confluent T75 flasks are rinsed with media containing 300 μM glutathione and 0.1% FBS. Cells are incubated at 37° C. for one hour in 8 mL media, 0.1% FBS, 300 μM glutathione, and 20 μM coelenterazine. T75 flasks are subsequently rinsed with 6 mL ECB buffer (140 mM NaCl, 20 mM KCl, 20 mM HEPES, 5 mM glucose, 1 mM MgCl, 1 mM CaCl2, 0.1 mg/mL BSA, PH 7.3-7.4). Cells are removed from the flask in ECB buffer, pelleted, and resuspended at a density of 2×10^5 cells/mL. Agonists are added to the cells and activity is determined using a luminometer. […]

SMILES | % Activity (Table 8, HEK-hR1, functional) | % Activity (Table 9, HEK-hR1, functional) | EC50 (Table 9, HEK-hR1, functional)
CC(C)C[C@@H](NC(=O)[C@H](Cc1ccccc1)NC(=O)[C@@H](N)Cc1ccc(O)cc1)C(=O)N[C@@H](Cc1c[nH]c2ccccc12)C(=O)N[C@@H](CCCNC(=N)N)C(=O)N1CCC[C@H]1C(=O)N[C@@H](CCCNC(=N)N)C(=O)N[C@@H](CC(N)=O)C(N)=O [Agonist B, YF-(D-L)-WRPRN-CONH2] (H-YF[dL]WRPRN-NH2) | 103% | – | –
C[C@@H](NC(=O)[C@H](Cc1ccccc1)NC(=O)[C@@H](N)Cc1ccc(O)cc1)C(=O)N[C@@H](Cc1c[nH]c2ccccc12)C(=O)N[C@@H](CCCNC(=N)N)C(=O)N1CCC[C@H]1C(=O)N[C@@H](CCCNC(=N)N)C(=O)N[C@@H](CC(N)=O)C(N)=O [Agonist D, YF-(D-A)-WRPRN-CONH2] (H-YF[dA]WRPRN-NH2; N-terminus assumed) | 96% | – | –
CC(=O)N[C@@H](Cc1ccccc1)C(=O)N[C@H](CC(C)C)C(=O)N[C@@H](Cc1c[nH]c2ccccc12)C(=O)N[C@@H](CCCNC(=N)N)C(=O)N1CCC[C@H]1C(=O)N[C@@H](CCCNC(=N)N)C(=O)N[C@@H](CC(N)=O)C(N)=O [Agonist E, Ac-F-(D-L)-WRPRN-CONH2] (Ac-F[dL]WRPRN-NH2) | 100% | – | –
CC(C)C[C@H](NC(=O)[C@H](Cc1c[nH]c2ccccc12)NC(=O)[C@@H](N)Cc1ccccc1)C(=O)N[C@@H](Cc1ccccc1)C(=O)N[C@@H](CCCNC(=N)N)C(=O)N1CCC[C@H]1C(=O)N[C@@H](CCCCNC(=N)N)C(=O)N[C@@H](CC(N)=O)C(N)=O [Agonist I, FWLFRP-(Harg)-N-CONH2] (H-FWLFRP[hArg]N-NH2) | – | 7% | > 1000 nM
CC(C)C[C@H](NC(=O)[C@H](Cc1c[nH]c2ccccc12)NC(=O)[C@@H](N)Cc1ccccc1)C(=O)N[C@@H](Cc1ccccc1)C(=O)N[C@@H](CCCNC(=N)N)C(=O)N[C@@H](C)C(=O)N[C@@H](CCCCNC(=N)N)C(=O)N[C@@H](CC(N)=O)C(N)=O [Agonist J, FWLFRA-(Harg)-N-CONH2] (H-FWLFRA[hArg]N-NH2) | – | 0% | > 1000 nM
CCCC[C@@H](NC(=O)[C@H](CCCNC(=N)N)NC(=O)[C@H](C)NC(=O)[C@H](CCCNC(=N)N)NC(=O)[C@H](Cc1ccccc1)NC(=O)[C@H](CC(C)C)NC(=O)[C@H](Cc1ccccc1)NC(=O)[C@@H](N)Cc1c[nH]c2ccccc12)C(N)=O [Agonist K, WFLFRAR-(D-Nle)-CONH2] (H-WFLFRAR[dNle]-NH2) | – | 61% | 400 nM
CC(C)C[C@H](NC(=O)[C@H](Cc1c[nH]c2ccccc12)NC(=O)[C@H](Cc1ccccc1)NC(=O)CNC(=O)[C@H](CCCNC(=N)N)NC(=O)[C@H](CO)NC(=O)[C@H](CCC(N)=O)NC(=O)[C@H](CO)NC(=O)[C@H](C)NC(=O)[C@H](Cc1ccccc1)NC(=O)[C@@H]1CCCN1C(=O)[C@H](CO)NC(=O)[C@H](CCC(N)=O)NC(=O)[C@H](Cc1ccccc1)NC(=O)[C@H](CCC(=O)O)NC(=O)[C@H](CCC(=O)O)NC(=O)[C@H](CC(=O)O)NC(=O)[C@@H](NC(=O)[C@H](CCCNC(=N)N)NC(=O)[C@@H](N)Cc1ccccc1)C(C)C)C(=O)N[C@@H](Cc1ccccc1)C(=O)N[C@@H](CCCNC(=N)N)C(=O)N1CCC[C@H]1C(=O)N[C@@H](CCCCNC(=N)N)C(=O)N[C@@H](CC(N)=O)C(N)=O [Agonist O] (H-FRVDEEFQSPFASQSRGFWLFRP[hArg]N-NH2; N-terminus assumed) | – | 35% | 420 nM
